Results taken from patent US20260049072A1, “HETEROCYCLIC COMPOUND FOR INDUCING DEGRADATION OF MUTANT KRAS PROTEIN” (Astellas Pharma Inc., priority 2022, published 2026).

Experiments:
[1] = test system: PA-TU-8902 xenograft; assay: Anti-tumor activity in PA-TU-8902 xenograft mouse; assay type: in vivo; conditions: 30 mg/kg, tail vein, twice a week for two weeks, male nude mice
Procedure: (§1) Test Example 4: Evaluation of Anti-Tumor Activity in Human KRAS G12V Mutant-Positive Pancreatic Cancer Line PA-TU-8902 or Human KRAS G12D Mutant-Positive Pancreatic Cancer Line PK-59 Xenograft Mouse
(§2) PA-TU-8902 cells or PK-59 cells (RIKEN BRC, RCB1901) were cultured using DMEM medium or RPMI-1640 medium containing 10% fetal bovine serum, respectively, in the presence of 5% CO2 at 37° C. The PA-TU-8902 cells or the PK-59 cells were collected and suspended in PBS, and two equivalents of VitroGel Hydrogel Matrix (from TheWell Bioscience) was added. A cell suspension prepared at 1.0-2.0×10^7 cells/mL was subcutaneously inoculated in a volume of 100 μL in 4- to 6-week-old male nude mice (BALB/c-nu (nu/nu), from The Jackson Laboratory Japan, Inc.). After about two weeks of the inoculation, the mice were divided into groups so that all the groups had approximately the same tumor volume and body weight, and administration of a subject compound was started on the next day. The test was conducted for five mice for each of a solvent group and a subject compound administration group. The solvent used was a solvent containing ethanol (from FUJIFILM Wako), an aqueous (2-hydroxypropyl)-β-cyclodextrin (HP-PCD) solution (from ROQUETTE), HCO-40 (from Nikko Chemicals Co., Ltd.) dissolved in a 5% glucose solution (from Otsuka Pharmaceutical) at a ratio of 4%, 0.5%, and 9%, respectively. The compound was dissolved using the solvent. The subject compound dissolved in the solvent or the solvent was administered into tail vein. The administration was performed once or twice a week for two weeks. The tumor size and the body weight were measured twice a week. The tumor volume was calculated by using the following formula.
(§3) [Tumor volume (mm^3)]=[Major axis of tumor (mm)]×[Minor axis of tumor (mm)]^2×0.5
(§4) The tumor growth inhibition (%) by the subject compound was calculated with the tumor volume of the subject compound administration group on the previous day of the start of the administration taken as 100% inhibition and the tumor volume of the solvent group of the day of the final measurement taken as 0% inhibition.

[2] = test system: PK-59 xenograft; assay: Anti-tumor activity in PK-59 xenograft mouse; assay type: in vivo; conditions: 10 mg/kg, tail vein, once a week for two weeks, male nude mice
Procedure: as §1, §2, §3, §4

| Compound | Anti-tumor activity at final measurement (PA-TU-8902 xenograft mouse), tumor growth inhibition [1] [% inhibition] | Anti-tumor activity at final measurement (PK-59 xenograft mouse), tumor growth inhibition [2] [% inhibition] |
| --- | --- | --- |
| CO[C@@H](C)COc1nc(NC2CN(C(=O)O[C@H]3C[C@@H](N(C)C)C3)C2)c2cc(C3CC3)c(-c3c(C)c(F)cc4[nH]ncc34)c(OCc3ccc(-c4cn([C@H](C(=O)N5C[C@H](O)C[C@H]5C(=O)N[C@@H](CO)c5ccc(-c6ocnc6C)cc5)C(C)C)nn4)cc3)c2n1 (atropisomer, axis not shown; (M)) [Example 1, (1s,3R)-3-(dimethylamino)cyclobutyl 3-({(7M)-6-cyclopropyl-7-(6-fluoro-5-methyl-1H-indazol-4-yl)-8-{[4-(1-{(2S)-1-[(2S,4R)-4-hydroxy-2-({(1R)-2-hydroxy-1-[4-(4-methyl-1,3-oxazol-5-yl)phenyl]ethyl}carbamoyl)pyrrolidin-1-yl]-3-methyl-1-oxobutan-2-yl}-1H-1,2,3-triazol-4-yl)phenyl]methoxy}-2-[(2S)-2-methoxypropoxy]quinazolin-4-yl}amino)azetidine-1-carboxylate] | 69 | 68 |
| CO[C@@H](C)COc1cc(OC2CN(C(=O)N3CC(CN(C)C)C3)C2)c2cc(C3CC3)c(-c3c(C)c(F)cc4[nH]ncc34)c(OCc3ccc(-c4cn([C@H](C(=O)N5C[C@H](O)C[C@H]5C(=O)N[C@@H](CO)c5ccc(-n6cncn6)cc5)C(C)C)nn4)cc3)c2n1 (atropisomer, axis not shown; (M)) [Example 5, (4R)-1-[(2S)-2-(4-{4-[({(7M)-6-cyclopropyl-4-[(1-{3-[(dimethylamino)methyl]azetidine-1-carbonyl}azetidin-3-yl)oxy]-7-(6-fluoro-5-methyl-1H-indazol-4-yl)-2-[(2S)-2-methoxypropoxy]quinolin-8-yl}oxy)methyl]phenyl}-1H-1,2,3-triazol-1-yl)-3-methylbutanoyl]-4-hydroxy-N-{(1R)-2-hydroxy-1-[4-(1H-1,2,4-triazol-1-yl)phenyl]ethyl}-L-prolinamide] | 56 | 92 |
| CO[C@@H](C)COc1nc(NC2CN(C(=O)O[C@H]3C[C@@H](N(C)C)C3)C2)c2cc(C3CC3)c(-c3c(C)c(F)cc4[nH]ncc34)c(OCc3ccc(-c4cn([C@H](C(=O)N5C[C@H](O)C[C@H]5C(=O)N[C@@H](CO)c5ccc(-c6scnc6C)cc5)C(C)C)nn4)cc3)c2n1 (atropisomer, axis not shown; (M)) [Example 11, (1s,3R)-3-(dimethylamino)cyclobutyl 3-({(7M)-6-cyclopropyl-7-(6-fluoro-5-methyl-1H-indazol-4-yl)-8-{[4-(1-{(2S)-1-[(2S,4R)-4-hydroxy-2-({(1R)-2-hydroxy-1-[4-(4-methyl-1,3-thiazol-5-yl)phenyl]ethyl}carbamoyl)pyrrolidin-1-yl]-3-methyl-1-oxobutan-2-yl}-1H-1,2,3-triazol-4-yl)phenyl]methoxy}-2-[(2S)-2-methoxypropoxy]quinazolin-4-yl}amino)azetidine-1-carboxylate] | 73 | 95 |
| CO[C@@H](C)COc1cc(OC2CN(C(=O)NCCN(C)C)C2)c2cc(C3CC3)c(-c3c(C)c(F)cc4[nH]ncc34)c(OCc3ccc(-c4cn([C@H](C(=O)N5C[C@H](O)C[C@H]5C(=O)N[C@@H](CO)c5ccc(-n6cncn6)cc5)C(C)C)nn4)cc3)c2n1 (atropisomer, axis not shown; (M)) [Example 12, (4R)-1-[(2S)-2-(4-{4-[({(7M)-6-cyclopropyl-4-[(1-{[2-(dimethylamino)ethyl]carbamoyl}azetidin-3-yl)oxy]-7-(6-fluoro-5-methyl-1H-indazol-4-yl)-2-[(2S)-2-methoxypropoxy]quinolin-8-yl}oxy)methyl]phenyl}-1H-1,2,3-triazol-1-yl)-3-methylbutanoyl]-4-hydroxy-N-{(1R)-2-hydroxy-1-[4-(1H-1,2,4-triazol-1-yl)phenyl]ethyl}-L-prolinamide] | 61 | 63 |
| CO[C@@H](C)COc1cc(OC2CN(C(=O)O[C@H]3C[C@@H](N(C)C)C3)C2)c2cc(C3CC3)c(-c3c(C)c(F)cc4[nH]ncc34)c(OCc3ccc(-c4cn([C@H](C(=O)N5C[C@H](O)C[C@H]5C(=O)N[C@@H](CO)c5ccc(-n6cncn6)cc5)C(C)C)nn4)cc3)c2n1 (atropisomer, axis not shown; (M)) [Example 13, (1s,3R)-3-(dimethylamino)cyclobutyl 3-({(7M)-6-cyclopropyl-7-(6-fluoro-5-methyl-1H-indazol-4-yl)-8-{[4-(1-{(2S)-1-[(2S,4R)-4-hydroxy-2-({(1R)-2-hydroxy-1-[4-(1H-1,2,4-triazol-1-yl)phenyl]ethyl}carbamoyl)pyrrolidin-1-yl]-3-methyl-1-oxobutan-2-yl}-1H-1,2,3-triazol-4-yl)phenyl]methoxy}-2-[(2S)-2-methoxypropoxy]quinolin-4-yl}oxy)azetidine-1-carboxylate] | 57 | 78 |
